Read-outs that look alike come from different tables or passages of the source.
Experiments:
kappa-delta heterodimer = target: T1, kappa-delta heterodimer (UniProt P32300+P34975); experiment: biochemical; type: binding, rat kappa, mouse delta
T1 construct: myc; FLAG; expressed in transfected cells; host or cells: HEK293

kappa opioid receptor = target: T2, kappa opioid receptor (Rattus norvegicus, UniProt P34975); experiment: biochemical; type: binding
T2 construct: expressed in transfected cells; host or cells: HEK293
T2 sequence (P34975 whole entry): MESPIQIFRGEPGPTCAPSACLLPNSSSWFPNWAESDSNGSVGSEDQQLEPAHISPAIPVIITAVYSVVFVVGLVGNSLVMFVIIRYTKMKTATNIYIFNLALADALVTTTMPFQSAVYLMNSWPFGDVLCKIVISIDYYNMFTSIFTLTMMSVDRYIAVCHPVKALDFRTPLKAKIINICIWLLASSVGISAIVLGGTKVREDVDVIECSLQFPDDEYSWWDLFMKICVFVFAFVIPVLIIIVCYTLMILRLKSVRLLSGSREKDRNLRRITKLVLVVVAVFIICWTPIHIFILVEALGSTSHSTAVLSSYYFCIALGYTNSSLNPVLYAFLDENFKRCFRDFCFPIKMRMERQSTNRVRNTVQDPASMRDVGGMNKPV

T1 sequence (P34975 whole entry): as above
T1 sequence (P32300 whole entry): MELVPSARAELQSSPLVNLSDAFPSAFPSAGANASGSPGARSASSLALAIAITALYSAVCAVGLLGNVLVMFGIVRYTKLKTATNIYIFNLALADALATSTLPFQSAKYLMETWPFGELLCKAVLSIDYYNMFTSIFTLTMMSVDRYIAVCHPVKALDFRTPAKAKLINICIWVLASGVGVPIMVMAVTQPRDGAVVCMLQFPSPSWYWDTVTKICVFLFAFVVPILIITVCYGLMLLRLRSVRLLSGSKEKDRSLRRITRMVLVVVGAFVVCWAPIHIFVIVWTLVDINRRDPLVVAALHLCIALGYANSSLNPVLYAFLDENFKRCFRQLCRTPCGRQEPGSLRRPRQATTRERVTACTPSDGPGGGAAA

| SMILES | Ki (kappa-delta heterodimer; Kappa-Delta (Ki)) | Ki (kappa opioid receptor) | Ki (kappa-delta heterodimer; read-out: Kappa-Delta (Ki)) | Ki (kappa opioid receptor; read-out: Kappa (Ki)) | affinity of kappa receptors (in words) (kappa opioid receptor) |
| --- | --- | --- | --- | --- | --- |
| CCC12CCN(CC3(O)CC3)C(Cc3ccc(O)cc31)C2(C)C (stereo not shown) [Bremazocine] | 1.2 ± 0.1 nM | 0.4 ± 0.11 nM |  |  |  |
| O=C1C(=Cc2ccccc2)C[C@@]2(O)[C@H]3Cc4ccc(O)c5c4[C@@]2(CCN3CC2CC2)[C@H]1O5 [BNTX, 7-Benzylidenenaltrexone] |  |  | 98 ± 19 nM | 172 ± 19 nM |  |
| CC[C@]12CCN(CC3CC3)[C@H](C(=O)c3ccc(O)cc31)[C@@H]2C [EKC, ethylketocyclazocine] | 2.6 ± 0.2 nM | 5.7 ± 0.79 nM |  |  |  |
| Oc1ccc2c3c1O[C@H]1c4[nH]c5c(c4C[C@@]4(O)[C@@H](C2)N(CC2CC2)CC[C@]314)C[C@@]1(O)[C@H]2Cc3ccc(O)c4c3[C@@]1(CCN2CC1CC1)[C@H]5O4 [nor-BNI, nor-binaltorphimine] |  | 4.9 ± 0.3 nM |  |  | high affinities |
| Oc1ccc2c3c1O[C@H]1c4[nH]c5ccccc5c4C[C@@]4(O)[C@@H](C2)N(CC2CC2)CC[C@]314 [Naltrinole] | 44 ± 1.1 nM | 44.3 ± 1.1 nM |  |  |  |

— US6855807B1 (priority 1999, dated 2005)
